This test has as its target human TopoII (TopoIIα) (Homo sapiens, UniProt P11388). The test is described as follows: kinetoplast DNA decatenation assay. It is filed as biochemical.

Sequence of human TopoII (TopoIIα) (P11388 whole entry): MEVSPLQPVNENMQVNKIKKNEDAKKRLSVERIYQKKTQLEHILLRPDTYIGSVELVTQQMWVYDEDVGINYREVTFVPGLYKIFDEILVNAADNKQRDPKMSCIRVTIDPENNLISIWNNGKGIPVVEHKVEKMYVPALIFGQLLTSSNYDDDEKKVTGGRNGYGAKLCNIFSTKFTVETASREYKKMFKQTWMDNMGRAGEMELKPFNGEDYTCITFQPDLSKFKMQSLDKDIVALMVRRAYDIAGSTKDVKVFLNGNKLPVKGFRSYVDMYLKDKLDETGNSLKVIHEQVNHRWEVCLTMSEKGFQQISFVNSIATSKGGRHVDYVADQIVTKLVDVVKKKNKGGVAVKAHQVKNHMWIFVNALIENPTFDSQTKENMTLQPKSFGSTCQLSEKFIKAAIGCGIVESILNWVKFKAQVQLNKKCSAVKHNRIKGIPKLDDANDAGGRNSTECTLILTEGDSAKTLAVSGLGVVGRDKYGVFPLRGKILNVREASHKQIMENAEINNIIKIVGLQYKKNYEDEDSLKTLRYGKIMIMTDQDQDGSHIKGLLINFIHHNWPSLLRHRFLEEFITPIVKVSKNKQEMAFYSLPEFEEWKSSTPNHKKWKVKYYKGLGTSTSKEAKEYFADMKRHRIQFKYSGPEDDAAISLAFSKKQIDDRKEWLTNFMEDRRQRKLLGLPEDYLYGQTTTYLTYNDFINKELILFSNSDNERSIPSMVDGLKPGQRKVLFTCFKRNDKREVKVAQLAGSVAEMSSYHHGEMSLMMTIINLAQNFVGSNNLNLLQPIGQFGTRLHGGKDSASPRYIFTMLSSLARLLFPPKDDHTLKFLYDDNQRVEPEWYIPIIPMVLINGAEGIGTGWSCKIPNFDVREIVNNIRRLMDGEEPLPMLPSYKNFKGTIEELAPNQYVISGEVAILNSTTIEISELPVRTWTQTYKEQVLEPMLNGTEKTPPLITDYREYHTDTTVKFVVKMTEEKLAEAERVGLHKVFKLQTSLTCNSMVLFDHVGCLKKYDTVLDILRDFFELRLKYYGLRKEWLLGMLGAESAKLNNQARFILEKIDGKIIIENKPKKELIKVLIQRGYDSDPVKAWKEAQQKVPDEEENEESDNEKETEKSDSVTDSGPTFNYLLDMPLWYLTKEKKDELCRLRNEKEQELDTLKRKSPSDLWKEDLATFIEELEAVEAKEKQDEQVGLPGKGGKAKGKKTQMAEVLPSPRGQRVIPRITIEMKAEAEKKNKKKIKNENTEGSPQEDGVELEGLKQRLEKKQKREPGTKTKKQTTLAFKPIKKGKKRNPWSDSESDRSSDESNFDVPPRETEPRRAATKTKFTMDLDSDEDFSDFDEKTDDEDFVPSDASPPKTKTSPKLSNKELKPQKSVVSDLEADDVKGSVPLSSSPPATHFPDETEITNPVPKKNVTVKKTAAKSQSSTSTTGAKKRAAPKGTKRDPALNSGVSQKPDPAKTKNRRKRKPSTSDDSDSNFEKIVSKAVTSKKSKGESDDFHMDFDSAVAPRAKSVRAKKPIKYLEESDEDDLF

`CC(=O)O[C@@H]1[C@@H](C)O[C@@H](c2ccc3c(c2O)[C@@H](O)[C@]24O[C@@]2(C3=O)[C@@]2(O)C(=O)C=C(C)C[C@@]2(O)C[C@@H]4O)C[C@H]1OC(=O)/C=C/C=C/C=C/C=C/C(=O)Nc1c(O)c2ccc(O)c(Cl)c2oc1=O` [SD8, Simocyclinone D8] yielded a concentration for half-maximal inhibition (IC50) of approximately 80 µM.
